Values joined by “and” are separate entries in the source; they are usually repeats but may differ in a detail not shown here. Equal values may be shown once.
Key:
ovariectomized ddY mice = assay: Prophylactic effects in ovariectomized ddY mouse model (estrogen-deficient osteoporosis); type: in vivo; settings: for histological profiles of epiphyseal regions of right tibia and femur: FIG. 11
Experimental: The effects of a drug would be based on histomorphometric changes of trabecular bone and thickness cortical bone in this model.
The objective of present study is to observe the prophylactic effect of DW1350MSA, and administration of drug was initiated 3 days after ovariectomy for prophylaxis study.
(§1) Twenty-five female ddY mice (6-wk old upon receipt, SLC, Japan) were used after acclimatization for 7 days. Animals were allocated 5 per polycarbonate cage in a temperature (20-25° C.) and humidity (30-35%) controlled room. Light:dark cycle was 12 hr:12 hr and feed (Samyang, Korea) and water were supplied free to access. 20 mice were ovariectomized and 5 mice were sham operated. For prophylaxis study, treatment was initiated 3 days after ovariectomy and then each sample was administrated for 6 weeks.
DW1350MSA was dissolved in injectable distilled water and administered at a dosage volume of 10 ml/kg by oral gavage.
3) Operation • A. Sham operation: Bilateral ovaries were exposed by incision of skin and abdominal muscles, (about 3 cm) after that closed by skin suture. • B. Ovariectomy: After exposure of bilateral ovaries, they were removed. After that closed by routine methods. • C. Operation was conduct under Ketamine hydrochloride (M.W.=256.8; 23076-35-9, ICN Biochemicals Inc., USA) and Xylazine hydrochloride (M.W.=274.19; 116-00512, Wako Pure Chemical Industries Ltd., Japan) anesthesia.
After that, embedded in paraffin, sectioned (3˜4 um) and stained with hematoxylin-eosin stain.
Histomorphometric changes of tibia and femur were evaluated. All histomorphometric indices including trabecular bone volume (TBV, %), thickness of trabecular bone (Tbt), trabecular bone number (Tbn), and length of trabeculer bone (Tbl) were calculated using automated image analysis (analysis Image Processing; SIS, Germany) under magnification 200 (×200) of microscopy (Zeiss, Germany) in the epiphyseal regions of right tibia and/or femur. In addition, cortical bone thickness (Cbt) was measured in mid-shaft region of right tibia and femur. […] Trabecular bone volume was calculated as percentage levels. • B. Measurement of histomorphometric index of trabecular bone: Thickness of trabecular bone (Tbt), trabecular bone number (Tbn), and length of trabecular bone (Tbl) were calculated using automated image analysis in the epiphyseal regions of right tibia and/or femur. Tbt and Tbl were calculated as um levels, and Tbn were calculated as number/whole sectional part of epiphyseal regions levels. • C. Thickness of cortical bone (Cbt): Cortical bone thickness was detected in mid-shaft regions of right tibia and/or femur, and they were calculated using automated image analyzer at prepared histological samples.
(§2) All data was calculated as mean±S.D. Statistical analyses was conducted using Mann-Whitney U-Wilcoxon Rank Sum W test (M-W test) with SPSS for Windows (Release 6.1.3., SPSS Inc., USA).

[1] = system: sciatic nerve neurectomized ddY mice; assay: Prophylactic effects in neurectomized ddY mouse model (immobilization osteoporosis); type: in vivo; settings: for TBV (%): epiphyseal regions of right tibia; for Cbt (um): mid-shaft regions of right tibia; for histological profiles of epiphyseal regions: FIG. 10, Hematoxylin-Eosin; for TBV % compared to control group (in words) / cortical bone thickness compared to control group (in words): right tibia, Fosamax 1 mg/kg, DW1350MSA 10 and 50 mg/kg
Excerpt: The effects of a drug would be based on histomorphometric changes of trabecular bone and thickness of cortical bone in this model.
The objective of the present study is to observe the anti-osteoporotic potential of DW1350MSA, and administration of the drug was initiated 2 days after neurectomy for prophylaxis study.
as §1, with “allocated to” for “allocated”, “were neurectomized” for “were ovariectomized”, “For the” for “For”, “initiated 2” for “initiated 3”, “after neurectomy” for “after ovariectomy”, “for 4” for “for 6”
DW1350MSA was dissolved in injectable distilled water and administered at a dosage volume of 10 ml/kg by oral gavage. The administered dose and schedule of these drugs are shown as Table 12.
3) Operation • A. Sham operation: The right side of the sciatic nerve was exposed by incision of skin and hip muscles, (about 1 cm) after that closed by skin suture. • B. neurectomy: After exposure of the right side of the sciatic nerve, about 1 mm of sciatic nerve was removed. After that closed by routine methods. • C. Operation was conducted under Ketamine hydrochloride (M.W.=256.8; 23076-35-9, ICN Biochemicals Inc., USA) and Xylazine hydrochloride (M.W.=274.19; 116-00512, Wako Pure Chemical Industries Ltd., Japan) anesthesia.
After that, embedded in paraffin, sectioned (3˜4 um) and stained with hematoxylin-eosin strain.
Mid-shaft cortical bone of tibia, and trabecular bone volume % of tibia were evaluated. In addition, histological profiles of epiphyseal regions of right tibia and femur were also observed. • A. Measurement of trabecular bone volume (TBV) Trabecular bone volume was calculated using automated image analysis (analySIS Image Processing; SIS, Germany) under magnification […] (×200) of microscopy (Zeiss, Germany) in the uniform area of epiphyseal regions of the right tibia and/or femur (growth plate regions were excluded). Trabecular bone volume was calculated as percentage levels. • B. Thickness of cortical bone (Cbt): Cortical bone thickness was detected in mid-shaft regions of right tibia and/or femur, and they were calculated using an automated image analyzer (analysis Image Processing; SIS, Germany) under magnification 200 (×200) of microscopy (Zeiss, Germany) at prepared histological samples. The thickness was detected as um levels. • C.
as §2

rabbit osteoclasts = assay: TRAP(+) MNC formation in isolated rabbit osteoclast cultures, single treatment without LTB4 (Example 6); type: cell-based; settings: 100 nM LTB4, 48 hours, dentin slices
Experimental: Rabbit osteoclasts were isolated as described by Victoria Tai's report (Doctoral Dissertation, 1997, Graduate Department of Pharmacology, University of Toronto) and Rraser P. Coxon et al. (Methods in Molecular Medicine, vol 80). Neonatal rabbits (New Zealand White) were sacrificed by ether-inhaling method under a hood. The removed long bones were dissected free of attached soft tissues and placed into ice-cold PBS. The long bones were cut longitudinally and mechanically curetted in 10 ml medium 199 with antibiotics (10 ug/ml penicillin G and 50 ug/ml gentamycin) in a glass Petri dish. Each bone was curetted with a scalpel blade and was finely minced. The fragments were then vigorously agitated by pipetting up and down using a pasteur pipette and vortex-mixed for 30 seconds. The fragments were allowed to settle and the cell suspension was then transferred to a 50 ml tube and the previous step repeated three times to a total volume of 40 ml. The bone fragments were allowed to settle (>1 min). The cell suspension was then transferred to a new 50 ml tube, passed through a 40 um cell strainer and centrifuged at 200 g for 8 minutes. The supernatant was removed and the pellet was immediately resuspended in α-MEM with 2% FBS (bicarbonate buffered medium).
40 uL droplets of osteoclast-containing suspensions were plated onto 60 mm tissue culture plastic dishes or on dentine slices in 96-well microtiter plates in 2% medium. The cells were allowed ninety minutes for attachment before the addition of 2 mL α-MEM with 2% FBS. After 24 hr culture, cells were washed to remove non-adherent cells and replaced with fresh medium as describes below.
After 24 hr in culture, the medium was replaced with fresh medium containing control, LTB4 receptor antagonists (1000 nM), DW1350 (10, 100 and 1000 nM) or LTB4 (100 nM) and the cultures were continued for an additional 48 hrs.
All cells were cultured at 37° C. in a humidified atmosphere of 95% air and 5% CO2 in bicarbonate buffered medium at pH 7.4.
Differentiated osteoclasts are multinucleated cells and have specific enzyme activity, such as ‘tartrate-resistant acid phosphatase (TRAP)’. Therefore, Osteoclast formation was determined by counting the number of TRAP-positive multinucleated cells (TRAP(+) MNCs).
After culture, the cells were fixed with 10% neutral buffered formalin for 30 min at 4° C., washed twice in distilled water and stained for TRAP activity by incubating with substrate. The number of TRAP(+)MNC with more than 2 nuclei was counted under photomicroscope.
Results were expressed as mean number of TRAP(+)MNC±SD of All experiments were done at least twice. Statistical analysis was performed for each experiment by student t-test.

[2] = right femur, 10 mg/kg oral once a day for 6 weeks (F10, D10)
[3] = right femur, 50 mg/kg oral once a day for 6 weeks (D50)
[4] = right tibia, 10 mg/kg oral once a day for 6 weeks (F10, D10)
[5] = right tibia, 50 mg/kg oral once a day for 6 weeks (D50)
[6] = tibia and femur, DW1350MSA 10 and 50 mg/kg, Fosamax 10 mg/kg
[7] = 10 mg/kg oral once a day for 4 weeks
[8] = 50 mg/kg oral once a day for 4 weeks
[9] = 1 mg/kg oral once a day for 4 weeks

CS(=O)(=O)O.Cc1nc(-c2ccc(OCCCCCOc3ccc(C(N)=NO)cc3)cc2)c(C(C)C)s1 [DW1350MSA]
histological profiles of epiphyseal regions of right tibia and femur (ovariectomized ddY mice): relatively well developed, especially in width and length, trabecular bone was detected
Cbt, cortical bone thickness (ovariectomized ddY mice; [2]): 118.00 ± 16.79 um
Ocn, osteoclast cell number (ovariectomized ddY mice; [2]): 5.00 ± 1.58 number
TBV, trabecular bone volume (ovariectomized ddY mice; [2]): 36.97 ± 9.59 # %
Tbl, trabecular bone length (ovariectomized ddY mice; [2]): 635.60 ± 190.76 um
Tbn, trabecular bone number (ovariectomized ddY mice; [2]): 19.00 ± 1.58 number/epiphyseal
Tbt, trabecular bone thickness (ovariectomized ddY mice; [2]): 48.60 ± 10.50 ## um
Cbt, cortical bone thickness (ovariectomized ddY mice; [3]): 140.26 ± 33.16 um
Ocn, osteoclast cell number (ovariectomized ddY mice; [3]): 4.40 ± 1.34 number
TBV, trabecular bone volume (ovariectomized ddY mice; [3]): 41.91 ± 6.04 # %
Tbl, trabecular bone length (ovariectomized ddY mice; [3]): 743.40 ± 187.00 um
Tbn, trabecular bone number (ovariectomized ddY mice; [3]): 21.80 ± 1.92 number/epiphyseal
Tbt, trabecular bone thickness (ovariectomized ddY mice; [3]): 68.00 ± 21.41 um
Cbt, cortical bone thickness (ovariectomized ddY mice; [4]): 136.80 ± 26.58 # um
Ocn, osteoclast cell number (ovariectomized ddY mice; [4]): 5.40 ± 1.52 # number
TBV, trabecular bone volume (ovariectomized ddY mice; [4]): 35.20 ± 4.90 # %
Tbl, trabecular bone length (ovariectomized ddY mice; [4]): 605.00 ± 160.44 ## um
Tbn, trabecular bone number (ovariectomized ddY mice; [4]): 11.80 ± 3.11 # number/epiphyseal
Tbt, trabecular bone thickness (ovariectomized ddY mice; [4]): 60.80 ± 13.20 # um
Cbt, cortical bone thickness (ovariectomized ddY mice; [5]): 170.40 ± 44.73 um
Ocn, osteoclast cell number (ovariectomized ddY mice; [5]): 3.60 ± 1.14 # number
TBV, trabecular bone volume (ovariectomized ddY mice; [5]): 38.42 ± 4.67 # %
Tbl, trabecular bone length (ovariectomized ddY mice; [5]): 679.20 ± 249.47 um
Tbn, trabecular bone number (ovariectomized ddY mice; [5]): 11.80 ± 3.96 # number/epiphyseal
Tbt, trabecular bone thickness (ovariectomized ddY mice; [5]): 112.60 ± 45.76 um
effect on decrease of Cbt induced by ovariectomy (summary in words) (ovariectomized ddY mice; [6]): significant effect to inhibit the decrease of Cbt induced by ovariectomy and the efficacy was higher than that of Fosamax
effect on decrease of TBV induced by ovariectomy (summary in words) (ovariectomized ddY mice; [6]): some significance effect to inhibit the decrease of TBV induced by ovariectomy but the efficacy was somewhat lower than that of Fosamax
effect on decrease of Tbl induced by ovariectomy (summary in words) (ovariectomized ddY mice; [6]): significant effect to inhibit the decrease of Tbl induced by ovariectomy and the efficacy was somewhat higher than that of Fosamax
effect on decrease of Tbn induced by ovariectomy (summary in words) (ovariectomized ddY mice; [6]): significance effect to inhibit the decrease of Tbn induced by ovariectomy and the efficacy was somewhat lower than that of Fosamax
effect on decrease of Tbt induced by ovariectomy (summary in words) (ovariectomized ddY mice; [6]): significance effect to inhibit the decrease of Tbt induced by ovariectomy and the efficacy was somewhat higher than that of Fosamax
effect on increase of Ocn induced by ovariectomy (summary in words) (ovariectomized ddY mice; [6]): significant effect to inhibit the increase of Ocn induced by ovariectomy and the efficacy was higher than that of Fosamax
TBV (%) [1, 7]: 25.75 ± 2.87 # %
Cbt (um) [1, 7]: 171.36 ± 18.60 # um
TBV (%) [1, 8]: 33.29 ± 4.96 %
Cbt (um) [1, 8]: 193.87 ± 12.50 um
histological profiles of epiphyseal regions [1]: relatively well developed, especially in width and number, trabecular bone was detected
TBV % compared to control group (in words) [1]: significant dose-dependent (p<0.01) increase of trabecular bone volume %
cortical bone thickness compared to control group (in words) [1]: significant dose-dependent (p<0.01) increase of cortical bone thickness

NCCCC(O)(P(=O)(O)O)P(=O)(O)O [Fosamax, Alendronate]
histological profiles of epiphyseal regions of right tibia and femur (ovariectomized ddY mice): more numerous extended trabecular bones were demonstrated compared to that of Control
Cbt, cortical bone thickness (ovariectomized ddY mice; [2]): 53.00 ± 23.82 um
TBV, trabecular bone volume (ovariectomized ddY mice; [2]): 58.26 ± 5.77 %
Tbl, trabecular bone length (ovariectomized ddY mice; [2]): 460.80 ± 260.64 ## um
Tbn, trabecular bone number (ovariectomized ddY mice; [2]): 23.60 ± 2.97 # number/epiphyseal
Tbt, trabecular bone thickness (ovariectomized ddY mice; [2]): 33.00 ± 12.45 um
Cbt, cortical bone thickness (ovariectomized ddY mice; [4]): 59.80 ± 15.55 um
TBV, trabecular bone volume (ovariectomized ddY mice; [4]): 47.56 ± 7.23 # %
Tbl, trabecular bone length (ovariectomized ddY mice; [4]): 550.00 ± 74.98 ## um
Tbn, trabecular bone number (ovariectomized ddY mice; [4]): 12.60 ± 4.98 number/epiphyseal
Tbt, trabecular bone thickness (ovariectomized ddY mice; [4]): 83.20 ± 39.86 # um
effect on decrease of Cbt induced by ovariectomy (summary in words) (ovariectomized ddY mice; [6]): no favorable effect to changes of Cbt
effect on increase of Ocn induced by ovariectomy (summary in words) (ovariectomized ddY mice; [6]): no favorable effect to changes of Ocn
TBV (%) [1, 9]: 21.81 ± 4.35 # %
Cbt (um) [1, 9]: 125.75 ± 36.01 um
histological profiles of epiphyseal regions [1]: more numerous extended trabecular bones were demonstrated compared to that of Control group
TBV % compared to control group (in words) [1]: significantly (p<0.01) increased compared to that of the control group
cortical bone thickness compared to control group (in words) [1]: significantly increased compared to that of the control group but significances were not demonstrated

CCCCC/C=C\C[C@@H](O)/C=C/C=C/C=C\[C@@H](O)CCCC(=O)O [LTB4, leukotriene-B4]
increase in the number of TRAP-positive osteoclasts compared to the control group (rabbit osteoclasts): 30˜40% and 40%
